According to PubChem BioAssay AID1592 (Sanford-Burnham Center for Chemical Genomics, 2009):
The source made the active and inactive calls.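 The calls were made as follows: active = less than 90% of the starting compound still present after 180 minutes in mouse plasma; inactive = 90% or more still present.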

Test system: mouse plasma stability, LC/MS/MS, 180 min
Experiment: mouse plasma degradation, percent remaining – biochemical, LC/MS/MS, 180 min, dry powder, ADME assay, late-stage follow-up (AID 1592)
Settings: at 1 µM; hits give low values

For `C=CCn1c(SCC(=O)c2ccc(O)c(O)c2)nnc1-c1ccccc1OC`, the percent remaining was 93.2% (inactive).
